In patent US20200375929A1, “METHODS AND COMPOSITIONS FOR THE TREATMENT OF DISEASES ASSOCIATED WITH CANCER, INFLAMMATION, OR IMMUNE RESPONSE” (Washington University, priority 2017, published 2020):
“Also recorded” adds a separate entry of the source.

Assays:
BMDMs / BV2 cells = assay: Intracellular ROS by flow cytometry; format: cell-based, mouse; settings: DI 250 μM
Procedure: For ROS measurements, cells were treated with DI (250 μM), loaded with 10 μM CM-H2DCFDA (Invitrogen) at RT for 30 min in Hank's balanced salt solution (HBSS). After incubation, cell were rinsed with warm HBSS, harvested and directly analyzed. Mean fluorescent intensity (MFI) of living cells is shown. For Nfkbiz 3′UTR reporter analysis GFP signal was determined in live cells. For analysis of cell viability cells were stained with propidium iodide (1 μg/mL) and percentage of negative cells was plotted. Cells were acquired on CantoII or LSRII flow cytometers (Becton Dickinson), and data were analyzed with FlowJo v.9.5.2 software (Tree Star). For gating strategy see e.g., FIG. 25.

eIF2α = eIF2α phosphorylation in BMDMs (western blot); format: cell-based, mouse; settings: DI
Procedure: (§1) BMDM were prepared from 6- to 12-week-old mice as described 1 and cultured in RMPI-1640 medium supplemented with 10% fetal bovine serum (FBS), 2 mM L-glutamine, and 100 U/mL penicillin-streptomycin and mouse recombinant M-CSF ([…], Peprotech). For experiments, cells were seeded at concentration 10^6 cells/mL in tissue culture plates of various formats. […]
(§2) Cells were lysed in RIPA Lysis Buffer System (Santa Cruz) and heat-denatured at 95° C. for 5 min in reducing sample buffer (BioRad). […] Non-specific binding was blocked with 5% skim milk (or 5% BSA when phospho-proteins were analyzed), and membranes were probed with primary antibodies specific to Nrf2 (#12721), HO-1 (#70081), IκBζ (mouse specific, #93726), IκBζ(#9244), ATF3 (#D2Y5W), IRAK1 (#4504; sensitivity of IRAK1 detection diminishes upon IRAK1 K63 ubiquitination), phospho-IKK (Ser176/180, #2697), p62/SQSTM1 (#5114), phospho-eIF2α (Ser51, #9721), eIF2α (#5324) from Cell Signaling; GAPDH (sc-25778), IκBα (sc-1643), ATF3 (sc-188), SDHA (sc-166909) from Santa Cruz; NQO1 (ab28947) from Abeam, followed by incubation with anti-rabbit-HRP (1:10,000; sc-2030) or anti-mouse-HRP (1:10,000; sc-2031) from Santa Cruz and Clarity western ECL substrate (Bio-Rad). […]

BMDMs = assay: Glutathione (GSH) measurement in BMDMs; format: cell-based, mouse; settings: DI 250 μM
Procedure: Total GSH concentration in cells was determined by GSH/GSSH Ratio Detection Assay Kit (Abeam) according to manufacturer protocol. Briefly, 106 BMDMs were lysed in 100 μL of 0.5% NP-40 in PBS, pH 6. Samples were deproteinized using trichloroacetic acid and neutralized by addition of 1M NaHCO3 to achieve pH 4-6. Collected extracts were diluted with supplied assay buffer and directly used for GSH measurement.

Regnase-1 = Regnase-1 protein levels in BMDMs (western blot); format: cell-based, mouse; settings: unstimulated macrophages, DI
Procedure: as §1, §2

IκBζ = assay: IL-17A-induced IκBζ in primary human keratinocytes (western blot); format: cell-based; settings: DI 12 h, IL-17A 100 ng/ml
Procedure: Cells were lysed in RIPA Lysis Buffer System (Santa Cruz) and heat-denatured at 95° C. for 5 min in reducing sample buffer (BioRad). Proteins were separated on 4%-20% polyacrylamide gradient gels (BioRad) and transferred onto 0.45 μm pore size PVDF membranes (Millipore). Non-specific binding was blocked with 5% skim milk (or 5% BSA when phospho-proteins were analyzed), and membranes were probed with primary antibodies specific to Nrf2 (#12721), HO-1 (#70081), IκBζ (mouse specific, #93726), IκBζ(#9244), ATF3 (#D2Y5W), IRAK1 (#4504; sensitivity of IRAK1 detection diminishes upon IRAK1 K63 ubiquitination), phospho-IKK (Ser176/180, #2697), p62/SQSTM1 (#5114), phospho-eIF2α (Ser51, #9721), eIF2α (#5324) from Cell Signaling; GAPDH (sc-25778), IκBα (sc-1643), ATF3 (sc-188), SDHA (sc-166909) from Santa Cruz; NQO1 (ab28947) from Abeam, followed by incubation with anti-rabbit-HRP (1:10,000; sc-2030) or anti-mouse-HRP (1:10,000; sc-2031) from Santa Cruz and Clarity western ECL substrate (Bio-Rad). Membranes were exposed to X-Ray films (Research Products International Corp.) and developed using SRX-101A film processor (Konica Minolta). GAPDH run on the same blot was used as loading control. After scanning of original films image brightness of some blots was adjusted and bands were cropped using ImageJ. Densitometry was performed using ImageJ. […]

EAE = EAE model of multiple sclerosis; format: in vivo, mouse; settings: daily DI administration
NFkB pathway = assay: Canonical NFkB signaling in LPS-stimulated BMDMs (p65 translocation, IKK, IkBa); format: cell-based, mouse
Procedure: (§3) BMDM were prepared from 6- to 12-week-old mice as described 1 and cultured in RMPI-1640 medium supplemented with 10% fetal bovine serum (FBS), 2 mM L-glutamine, and 100 U/mL penicillin-streptomycin and mouse recombinant M-CSF ([…], Peprotech). For experiments, cells were seeded at concentration 10^6 cells/mL in tissue culture plates of various formats. The cells were treated with DI (250 μM (unless stated otherwise), cat #592498, Sigma), DMF (50 μM (unless stated otherwise), cat #242926, Sigma), 3-(ethoxycarbonyl)but-3-enoic acid (3MI, 5 μM, Aris Pharmaceuticals Inc.), 4-ethoxy-2-methylene-4-oxobutanoic acid (MI, Aris Pharmaceuticals Inc.) for 12 h and activated with lipopolysaccharide (LPS; 100 ng/mL; E. coli 0111:B4, Sigma) for 1 h or as indicated. In some experiments cells were stimulated with combination of LPS (20 ng/mL) and IFN-γ (50 ng/mL; Peprotech). In some experiments cells were treated with α-tocopherol (AT, 10 μM; Sigma), MitoTEMPO (MT, 500 μM; Sigma), N-acetylcysteine (NAC, 1 mM, Sigma), ethylester of GSH (EtGSH; 1 mM, Santa Cruz) or buthionene sulfoximine (BSO, 500 μM, Sigma) alone or in combination with DI for 12 h. […]
as §2

ATF3 = ATF3 protein expression (western blot); format: cell-based, mouse; settings: BMDMs, DI, also on Nrf2−/− background
Procedure: as §3, §2

Structure (SMILES): C=C(CC(=O)OC)C(=O)OC [DI, dimethyl itaconate]
- intracellular ROS production (BMDMs / BV2 cells): increased intracellular ROS; also recorded: increase in ROS generation
- eIF2α phosphorylation in Atf3−/− macrophages (eIF2α; Atf3−/− macrophages): failed to increase eIF2α phosphorylation
- eIF2α phosphorylation (eIF2α; WT macrophages): marked increase
- GSH/GSSG ratio (BMDMs): substantial drop
- cellular GSH (BMDMs): substantial drop in cellular GSH; also recorded: substantial drop of cellular GSH concentration
- Regnase-1 protein (Regnase-1): up-regulated Regnase-1
- IL-17-induced IκBζ induction (IκBζ): inhibited
- clinical development of EAE (EAE): ameliorated; also recorded: prevented clinical development of EAE
- p65 nuclear translocation upon LPS (NFkB pathway; BMDMs, DI 250 μM 12 h, LPS): does not inhibit nuclear translocation of p65; also recorded: nor did it prevent LPS-mediated p65 nuclear translocation
- IκBα degradation in response to LPS (NFkB pathway; BMDMs, DI, LPS): did not inhibit IκBα degradation
- canonical NFkB response (NFkB pathway; DI at concentrations effective to inhibit IL6, p65 translocation, IKK activation, IkBa degradation): not affected
- ATF3 protein (ATF3): upregulated
